Experimental data published in article PMC9338942, “(+)-Usnic acid and its salts, inhibitors of SARS‐CoV‐2, identified by using in silico methods and in vitro assay” (Scientific Reports, 2022).

What was measured:
Assay in all cases: microbe, parasite or virus in culture
Assay type in all cases: cell-based
Conditions in all cases: Severe acute respiratory syndrome coronavirus 2, vero cells
[1] = test system: SARS-CoV-2 Delta var (B.1.617.2)
[2] = test system: SARS-CoV-2 Beta var (B.1.351)
[3] = test system: SARS-CoV-2 Alpha var (B.1.1.7)

Row | Structure (SMILES) | IC50 [1] | IC50 [2] | IC50 [3]
1 | CCN(CC)CCCC(C)Nc1ccnc2cc(Cl)ccc12 (stereo not drawn) [chloroquine] | 6.22 µM | 2.64 µM | 6.16 µM
2 | Cc1cccc(C)c1OCC(=O)N[C@@H](Cc1ccccc1)[C@@H](O)C[C@H](Cc1ccccc1)NC(=O)[C@H](C(C)C)N1CCCNC1=O [lopinavir] | 15.3 µM | 11.8 µM | 10.8 µM
3 | CC(=O)c1c(O)c(C)c(O)c2c1OC1=CC(=O)C(C(C)=O)C(=O)[C@@]12C (single isomer, unassigned; (+)) [(+)-usnic acid] | 7.17 µM | 2.92 µM | 6.05 µM
4 | CCC(CC)COC(=O)[C@H](C)N[P@](=O)(OC[C@H]1O[C@@](C#N)(c2ccc3c(N)ncnn23)[C@H](O)[C@@H]1O)Oc1ccccc1 [remdesivir] | 6.48 µM | 1.47 µM | 2.25 µM
